# Data from publication PMC12735921, “Evaluation of Antiproliferative Activity and Molecular Modeling Studies of Some Novel Benzimidazolone-Bridged Hybrid Compounds” (Pharmaceuticals, 2025).
# Where “and” joins values, the source holds several entries; their conditions need not be identical. Identical values can stand only once. Marks after values point to notes of the source that are not given here.
# Key:
# Assay type in all cases: cell-based, human
# [1] = test system: A549 cells; test: MTT cell viability assay, A549; conditions: for IC50: Homo sapiens, A549, MTT, 48 h, mean ± SD, n = 3; for A549 Selectivity Index (SI): SI = IC50 (HEK 293)/IC50 (A549)
# Method: (§1) Cell viability assay was performed on the human lung cancer (A549) (ATCC CCL-185), human breast cancer (MCF-7) (ATCC-HTB-22), cervical cancer (HeLa) (ATCC-CCL-2), and human embryonic kidney 293 (HEK293) (ATCC-CRL-1573) cell lines, which were purchased from Deutsche Sammlung von Mikroorganismen und Zellkulturen (DSMZ, Braunschweig, Germany). The cells were maintained in Dulbecco’s modified Eagle’s medium (DMEM), supplemented with 10% fetal bovine serum (FBS), 2 mM L-glutamine, 100 U/mL penicillin, and 100 mg/L streptomycin (Biochrom AG, Berlin, Germany) at 37 °C in a humidified atmosphere of 5% CO2.
# (§2) The cytotoxic effect was determined by the MTT (3-(4,5-dimethyl-2-thiazolyl)-2,5-diphenyl-2H-tetrazolium bromide) cell viability assay. Cells were seeded at an initial concentration of 1 × 10^5 cells/mL in 96-well microplates. Cells were then treated with different concentrations (0.5, 5, 10, 25, 50, 100 and 200 µM) of the novel synthesized compounds for 48 h. After the incubation period, the formed formazan crystals were dissolved in dimethyl sulfoxide (DMSO), and the optical density (OD) of the compounds was measured at 570 nm using a spectrophotometer (BMG Labtech, Ortenberg, Germany). Cytotoxicity was expressed as an increase in the mean percentage of cytotoxicity relative to the unexposed control ± standard deviation (SD). […] Control values were set at 0% cytotoxicity. IC50 was calculated by fitting the data to a sigmoidal curve using a four-parameter logistic model and was presented as an average of three independent measurements. […] Doxorubicin was used as a positive control. Each sample was tested in triplicate.
# (§3) To evaluate the selectivity of the tested compound(s) toward cancer cells over normal cells, the Selectivity Index (SI) was calculated using the following formula:SI = IC50 (normal cells)/IC50 (cancer cells)
# (§4) An SI value greater than 2 was considered to indicate selective cytotoxicity, while values below 2 were interpreted as non-selective. Higher SI values reflect greater therapeutic potential due to reduced toxicity toward normal cells.
# [2] = test system: MCF-7 cells; test: MTT cell viability assay, MCF-7; conditions: for IC50: Homo sapiens, MCF7, MTT, 48 h, mean ± SD, n = 3; for MCF-7 Selectivity Index (SI): SI = IC50 (HEK 293)/IC50 (MCF-7)
# Method: as §1, §2, §3, §4
# [3] = test system: HeLa cells; test: MTT cell viability assay, HeLa; conditions: for IC50: Homo sapiens, HeLa, MTT, 48 h, mean ± SD, n = 3; for HeLa Selectivity Index (SI): SI = IC50 (HEK 293)/IC50 (HeLa)
# Method: as §1, §2, §3, §4
# [4] = test system: HEK 293 cells; test: MTT cell viability assay, non-cancerous HEK 293; conditions: Homo sapiens, HEK293, 48 h, mean ± SD, n = 3
# Method: as §1
# The cytotoxic effect was determined by the MTT (3-(4,5-dimethyl-2-thiazolyl)-2,5-diphenyl-2H-tetrazolium bromide) cell viability assay. Cells were seeded at an initial concentration of 1 × 10^5 cells/mL in 96-well microplates. Cells were then treated with different concentrations (0.5, 5, 10, 25, 50, 100 and 200 µM) of the novel synthesized compounds for 48 h. After the incubation period, the formed formazan crystals were dissolved in dimethyl sulfoxide (DMSO), and the optical density (OD) of the compounds was measured at 570 nm using a spectrophotometer (BMG Labtech, Ortenberg, Germany). Cytotoxicity was expressed as an increase in the mean percentage of cytotoxicity relative to the unexposed control ± standard deviation (SD). […] Control values were set at 0% cytotoxicity. IC50 was calculated by fitting the data to a sigmoidal curve using a four-parameter logistic model and was presented as an average of three independent measurements. […] Each sample was tested in triplicate.
# [5] = test system: A549 cells; test: LDH leakage assay, A549; conditions: A549, IC50 concentration of compound, 48 h; H2O2 positive control; mean ± SD, n = 3
# Method: (§5) One hundred microliters of culture medium was transferred to a new 96-well plate. One hundred microliters of LDH reaction solution was added to each well, and absorbance was measured at 490 nm using an ELISA plate reader (BMG Labtech, Ortenberg, Germany) after 30 min.
# [6] = test system: MCF-7 cells; test: LDH leakage assay, MCF-7; conditions: MCF-7, IC50 concentration of compound, 48 h; H2O2 positive control; mean ± SD, n = 3
# Method: as §5
# [7] = test system: A549 cells; test: Total oxidative status (TOS), A549; conditions: A549, IC50 concentration of compound, 48 h; H2O2 250 µM positive control; mean ± SD, n = 3
# Method: (§6) TOS were evaluated using a commercially available kit (Rel Assay Diagnostics®, Gaziantep, Turkey) according to the manufacturer’s instructions. […] The TOS assay quantifies oxidizing agents based on their ability to convert an iron (II) ion chelator complex to iron (III) ions. The results were calibrated against hydrogen peroxide (H2O2, 250 µM) as a positive control for 48 h and expressed as µmol H2O2 equivalents per liter. The analysis was performed in three independent biological replicates (n = 3).
# [8] = test system: MCF-7 cells; test: Total oxidative status (TOS), MCF-7; conditions: MCF-7, IC50 concentration of compound, 48 h; H2O2 250 µM positive control; mean ± SD, n = 3
# Method: as §6
# [9] = test system: A549 cells; test: Intracellular GSH/GSSG ratio, A549; conditions: A549, IC50 concentration of compound, 48 h; H2O2 positive control; mean ± SD, n = 3
# Method: (§7) Intracellular reduced (GSH) and oxidized (GSSG) glutathione levels were measured using the GSH/GSSG Ratio Detection Assay Kit (Cayman Chemical, Ann Arbor, MI, USA, Cat. No: 703002) according to the manufacturer’s protocol. […] After treatment, cells were washed with cold PBS and lysed with MES buffer provided in the kit.
# (§8) To prevent oxidation of GSH to GSSG during processing, samples were deproteinized using the supplied metaphosphoric acid solution and neutralized accordingly. Total glutathione and GSSG levels were measured separately by adding the appropriate buffers and reagents to the wells of a 96-well plate, followed by the addition of DTNB recycling reagent and glutathione reductase. Absorbance was read at 405 nm using a microplate reader (BMG Labtech, Germany). The amount of GSH was calculated by subtracting 2 × GSSG from the total glutathione, and the GSH/GSSG ratio was used to assess intracellular redox status.
# [10] = test system: MCF-7 cells; test: Intracellular GSH/GSSG ratio, MCF-7; conditions: MCF-7, IC50 concentration of compound, 48 h; H2O2 positive control; mean ± SD, n = 3
# Method: as §7, §8
# [11] = test system: A549 cells; test: Cell cycle analysis (PI staining, flow cytometry), A549; conditions: A549, IC50 concentration, 48 h, mean ± SEM, n = 3
# Method: (§9) Cell cycle distribution was assessed by propidium iodide (PI) staining and flow cytometry. HeLa, MCF-7, and A549 cells were seeded in 6-well plates at a density of 1 × 10^5 cells per well and allowed to attach overnight. […] Following exposure, both adherent and floating cells were collected, washed twice with cold phosphate-buffered saline (PBS, pH 7.4), and fixed overnight in 70% cold ethanol at 4 °C. After fixation, the cells were centrifuged and resuspended in 500 µL of PI/RNase staining solution containing 50 µg/mL PI and 100 µg/mL RNase A (Sigma-Aldrich®, St. Louis, MO, USA), followed by incubation in the dark for 30 min at 37 °C. The stained samples were analyzed using a Muse™ Cell Analyzer (Merck, Millipore, Germany) equipped with a 488 nm excitation laser and a 617 nm emission filter. A minimum of 10,000 events per sample were acquired after exclusion of debris and doublets via FSC-A vs. FSC-H gating. The DNA content histograms were generated automatically, and cell populations were expressed as percentages of G0/G1, S, and G2/M phases using the Muse™ Cell Cycle Analysis Software 1.5.0.0. All assays were conducted in triplicate biological repeats (n = 3), and results were reported as mean ± SEM.
# [12] = test system: MCF-7 cells; test: Cell cycle analysis (PI staining, flow cytometry), MCF-7; conditions: MCF-7, IC50 concentration, 48 h, mean ± SEM, n = 3
# Method: as §9
# [13] = test system: HeLa cells; test: LDH leakage assay, HeLa; conditions: IC50 concentration of compound, 48 h, H2O2 positive control, mean ± SD, n = 3
# Method: as §5
# [14] = test system: HeLa cells; test: Total oxidative status (TOS), HeLa; conditions: IC50 concentration of compound, 48 h, H2O2 250 µM positive control, mean ± SD, n = 3
# Method: as §6
# [15] = test system: HeLa cells; test: Intracellular GSH/GSSG ratio, HeLa; conditions: IC50 concentration of compound, 48 h, H2O2 positive control, mean ± SD, n = 3
# Method: as §7, §8
# [16] = test system: HeLa cells; test: Cell cycle analysis (PI staining, flow cytometry), HeLa; conditions: IC50 concentration, 48 h, mean ± SEM, n = 3
# Method: as §9
IC50 [1] [µM],IC50 [2] [µM],IC50 [3] [µM],SMILES,A549 Selectivity Index (SI) [1],MCF-7 Selectivity Index (SI) [2],HeLa Selectivity Index (SI) [3],IC50 [4] [µM],LDH [5],LDH [6],TOS [7],TOS [8],GSH/GSSG [9],GSH/GSSG [10],cells in G0/G1 phase [11] [%],cells in G2/M phase [11] [%],cells in S phase [11] [%],LDH [13],TOS [14],further results
10.2 ± 0.58,9.7 ± 0.56,11.5 ± 0.66,"O=C(Cn1c(=O)n(CC(=O)NNC(=O)c2cc3cc(Br)ccc3oc2=O)c2cc(Cl)c(Cl)cc21)NNC(=O)c1cc2cc(Br)ccc2oc1=O [Compound 12c, N′,N′′′ -(2,2′-(5,6-dichloro-2-oxo-1H-benzo[d]imidazole-1,3(2H)-diyl)bis(acetyl))bis(6-bromo-2-oxo-2H-chromene-3-carbohydrazide)]",2.01,2.21,1.86,21.5 ± 1.24,"30.4 ± 2.6 µU/mL and 30.4 ± 2.6 ^a,b µU/mL","28.8 ± 2.2 µU/mL and 28.8 ± 2.2 ^a,b µU/mL","8.5 ± 0.7 µmol H2O2 eq/L and 8.5 ± 0.7 ^a,b µmol H2O2 eq/L","8.3 ± 0.6 µmol H2O2 eq/L and 8.3 ± 0.6 ^a,b µmol H2O2 eq/L","9.5 ± 0.8 nmol/mg Protein and 9.5 ± 0.8 ^a,b nmol/mg Protein","10.2 ± 1.0 nmol/mg Protein and 10.2 ± 1.0 ^a,b nmol/mg Protein",68.4 ± 2.4,16.4 ± 1.5,15.2 ± 1.3,–,–,cells in G0/G1 phase [12]: 72.2 ± 2.3%; cells in G2/M phase [12]: 12.5 ± 1.1%; cells in S phase [12]: 15.3 ± 1.2%
15.5 ± 0.89,21.9 ± 1.26,12.8 ± 0.73,"O=C(Cn1c(=O)n(CC(=O)NNC(=O)c2cc3cc(Cl)cc(Cl)c3oc2=O)c2cc(Cl)c(Cl)cc21)NNC(=O)c1cc2cc(Cl)cc(Cl)c2oc1=O [Compound 12d, N′,N′′′ -(2,2′-(5,6-dichloro-2-oxo-1H-benzo[d]imidazole-1,3(2H)-diyl)bis(acetyl))bis(6,8-Dichloro-2-oxo-2H-chromene-3-carbohydrazide)]",2.01,1.42,2.4,31.2 ± 1.8,"27.3 ± 2.2 µU/mL and 27.3 ± 2.2 ^a,b µU/mL",–,"7.9 ± 0.6 µmol H2O2 eq/L and 7.9 ± 0.6 ^a,b µmol H2O2 eq/L",–,"10.1 ± 0.9 nmol/mg Protein and 10.1 ± 0.9 ^a,b nmol/mg Protein",–,62.1 ± 2.1,19.0 ± 1.5,18.9 ± 1.4,"29.7 ± 2.4 µU/mL and 29.7 ± 2.4 ^a,b µU/mL","8.4 ± 0.6 µmol H2O2 eq/L and 8.4 ± 0.6 ^a,b µmol H2O2 eq/L",GSH/GSSG [15]: 9.7 ± 1.0; cells in G0/G1 phase [16]: 40.1 ± 2.0%; cells in G2/M phase [16]: 36.4 ± 1.8%
–,–,–,"OO [Compound H2O2, hydrogen peroxide, reference compound]",–,–,–,–,40.7 ± 3.0 ^a µU/mL,39.5 ± 2.7 ^a µU/mL,10.5 ± 0.8 ^a µmol H2O2 eq/L,10.1 ± 0.7 ^a µmol H2O2 eq/L,7.1 ± 0.9 ^a nmol/mg Protein,7.4 ± 0.9 ^a nmol/mg Protein,–,–,–,41.5 ± 3.2 ^a µU/mL,10.4 ± 0.7 ^a µmol H2O2 eq/L,–
